Among the test systems are 786-0 renal; RPMI-8226 leukemia; UACC-257 melanoma; NCI-H23 lung; EKVX NSCLC; HCT-15 colon; OVCAR-8 ovarian; MDA-MB-231 breast; M14 melanoma; BT-549 breast.
What all share (test): NCI tumour cell line growth inhibition, 48 h

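In this assay, cells in 96-well plates receive the compound at five concentrations for 48 hours. Endpoints are linearly interpolated between the surrounding concentrations. GI50 is the concentration that inhibits growth by half. TGI is the concentration that stops growth completely.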 Some results are limits rather than exact numbers.

Turning to `COc1ccc(C2=NN(c3ccccc3)C[N+](c3ccc(C)cc3)=N2)cc1`, the TGI with 786-0 renal was above 100 µM; with RPMI-8226 leukemia it was 67.4 µM; with UACC-257 melanoma it was above 100 µM; with NCI-H23 lung it was above 100 µM; with EKVX NSCLC, above 100 µM; in the assay on HCT-15 colon, above 100 µM. Besides, in the assay with OVCAR-8 ovarian, the TGI was above 100 µM.
For the compound `COc1ccc(/C=C2/CSCC3=C2NC(=S)NC3c2ccc(OC)c(OC)c2OC)c(OC)c1OC` (stereo not given), the TGI in the assay on MDA-MB-231 breast is 59.4 µM; with 786-0 renal, 40.7 µM; in the assay on M14 melanoma, 32.6 µM; in the assay on RPMI-8226 leukemia it was above 100 µM; in the assay on UACC-257 melanoma, 67.7 µM; in the assay with NCI-H23 lung, 43 µM. Moreover, the TGI with EKVX NSCLC, with HCT-15 colon and in the assay with OVCAR-8 ovarian was above 100 µM in each case.
With `O=c1[nH]nc(NCc2ccccc2)c2nnn(Cc3ccccc3)c12`, the TGI with MDA-MB-231 breast, in the assay with M14 melanoma, with RPMI-8226 leukemia, in the assay with UACC-257 melanoma, with NCI-H23 lung and in the assay on EKVX NSCLC was above 100 µM each time. Moreover, the TGI with HCT-15 colon, with OVCAR-8 ovarian and in the assay on BT-549 breast was above 100 µM each time.
Turning to `CC1(C)[C@@H]2CC[C@]1(C)[C@H](OC(=O)/C=C/c1ccccc1)C2`, the TGI was 35 µM with MDA-MB-231 breast; 32.3 µM in the assay on 786-0 renal; 70.8 µM in the assay on M14 melanoma; 63.3 µM in the assay on UACC-257 melanoma; 50.8 µM with NCI-H23 lung; 41.8 µM in the assay with EKVX NSCLC. In addition, the TGI in the assay on HCT-15 colon came to 33.4 µM; in the assay on OVCAR-8 ovarian, 36.5 µM; in the assay with BT-549 breast, 48 µM.
Turning to `COC(=O)c1c(C(=O)OC)c2ccccn2c1-c1cc(OC)c(Br)c(=O)o1`, the TGI in the assay on MDA-MB-231 breast, in the assay with 786-0 renal, with M14 melanoma, in the assay on RPMI-8226 leukemia, with UACC-257 melanoma and in the assay with NCI-H23 lung was above 100 µM throughout. Further, the TGI in the assay with EKVX NSCLC, with HCT-15 colon and with OVCAR-8 ovarian was above 100 µM in each case.
`Cc1[nH]c(=O)[nH]c(=O)c1/C=C/C(=O)O` (tested in a mixture with another compound): the TGI in the assay with RPMI-8226 leukemia is above 625 µM; in the assay on UACC-257 melanoma it was above 625 µM; in the assay on NCI-H23 lung it was above 625 µM; in the assay with EKVX NSCLC, above 625 µM; in the assay on HCT-15 colon, above 625 µM; with OVCAR-8 ovarian, above 568 µM.
With `COc1cc2c3cc1Oc1c(O)c(OC)cc4c1C(Cc1ccc(O)c(c1)Oc1ccc(cc1)CC3N(C)CC2)N(C)CC4` (stereo not given), the TGI in the assay on 786-0 renal was 25.9 µM; with M14 melanoma, 7.8 µM; in the assay on RPMI-8226 leukemia, 84.4 µM; in the assay with UACC-257 melanoma it was 33.4 µM; in the assay on NCI-H23 lung, 39 µM; in the assay on EKVX NSCLC, 37.1 µM. Also, the TGI with HCT-15 colon was 23.8 µM; in the assay with OVCAR-8 ovarian it was 28.4 µM.
In the case of `COC(=O)C1CCC(=O)N1C(c1cc(OC)c(OC)c(OC)c1)c1cc(OC)c(OC)c(OC)c1` (stereo not given), the TGI with MDA-MB-231 breast, in the assay on 786-0 renal, in the assay on M14 melanoma, with RPMI-8226 leukemia, in the assay on UACC-257 melanoma and with EKVX NSCLC was above 100 µM each time. The TGI in the assay on HCT-15 colon and in the assay on OVCAR-8 ovarian was above 100 µM throughout.
As for `O=C1C=CC2OC(c3ccccc3)C(O)C2O1` (stereo not given), the TGI was determined as 7.65 µM in the assay on RPMI-8226 leukemia; 18.5 µM with UACC-257 melanoma; 12.6 µM in the assay with NCI-H23 lung; 15.4 µM with EKVX NSCLC; 14.4 µM in the assay with HCT-15 colon; 20.2 µM with OVCAR-8 ovarian.
Take `COc1cc(C2C3=C(COC3=O)Oc3cc4c(cc32)OCO4)ccc1O` (stereo not given): the TGI in the assay with 786-0 renal is above 100 µM; in the assay with M14 melanoma, above 100 µM; in the assay on RPMI-8226 leukemia it was above 63.2 µM; in the assay on UACC-257 melanoma, above 100 µM; with NCI-H23 lung, above 100 µM; in the assay with EKVX NSCLC it was above 100 µM. In addition, the TGI with HCT-15 colon was above 100 µM; with OVCAR-8 ovarian it was 29.5 µM; with BT-549 breast, above 100 µM.
Turning to `N#CCc1c(-c2ccccc2)n(S(=O)(=O)c2ccccc2)c2ccccc12`, the TGI in the assay with 786-0 renal, in the assay with M14 melanoma, with RPMI-8226 leukemia, in the assay with UACC-257 melanoma, in the assay with NCI-H23 lung and with HCT-15 colon was above 100 µM throughout. Moreover, the TGI with OVCAR-8 ovarian was above 100 µM.
As for `COc1cc(OC)cc(-c2ccc(-c3ccc(C(=N)N)cn3)o2)c1`, in the assay on RPMI-8226 leukemia, the GI50 was 1.92 µM and the TGI was found to be 4.33 µM. In the assay on UACC-257 melanoma, the GI50 was 1.76 µM and the TGI came to 3.3 µM.
On to `O=C(CN(C(=O)OC12CC3CC(CC(C3)C1)C2)C(=O)OC12CC3CC(CC(C3)C1)C2)Oc1ccc([N+](=O)[O-])cc1`, for which the TGI in the assay on MDA-MB-231 breast, in the assay on 786-0 renal, in the assay on M14 melanoma, with UACC-257 melanoma, in the assay on NCI-H23 lung and in the assay on EKVX NSCLC was above 100 µM throughout. In addition, the TGI in the assay on HCT-15 colon, with OVCAR-8 ovarian and with BT-549 breast was above 100 µM in each case.
As to `CCC(C)C(N)C(=O)NC(CC(N)=O)C(=O)NC(CC(C)C)C(=O)NC(CCCCN)C(=O)NC(C)C(=O)NC(CC(C)C)C(=O)NC(C)C(=O)NC(C)C(=O)NC(CC(C)C)C(=O)NC(C)C(=O)NC(CCCCN)C(=O)NC(CCCCN)C(=O)NC(C(=O)NC(CC(C)C)C(N)=O)C(C)CC` (stereo not given), the TGI with 786-0 renal was 13.7 µM; in the assay on M14 melanoma, 8.64 µM; in the assay with UACC-257 melanoma, 19.1 µM; in the assay with NCI-H23 lung, 29 µM; in the assay on EKVX NSCLC it was 18.7 µM; in the assay on HCT-15 colon, 31.8 µM. The TGI with OVCAR-8 ovarian came out at 34.3 µM.
Regarding `Clc1cccc(-c2sc(-c3ccsc3)cc2Cc2ccsc2)c1`, the TGI with MDA-MB-231 breast, with 786-0 renal, in the assay with M14 melanoma, with RPMI-8226 leukemia, in the assay on UACC-257 melanoma and in the assay on NCI-H23 lung was above 10 µM in each case. For the same compound, the TGI in the assay with EKVX NSCLC, in the assay with HCT-15 colon and in the assay on OVCAR-8 ovarian was above 10 µM in each case.
For the compound `CCOC(=O)CC(c1ccccc1)C(C)(C(=O)OCC)C(=O)OCC` (stereo not given), the TGI in the assay with MDA-MB-231 breast, in the assay with 786-0 renal, in the assay on M14 melanoma, in the assay on UACC-257 melanoma, in the assay on NCI-H23 lung and in the assay with EKVX NSCLC was above 100 µM in each case. The TGI with HCT-15 colon, with OVCAR-8 ovarian and in the assay with BT-549 breast was above 100 µM each time.

These data come from PubChem BioAssay (NCI).
